# Test results published in paper PMC4421842 (Nature Communications, 2015).
# Read-outs that look alike come from different tables or passages of the source.
# Legend:
# E. faecalis = assay: microbe, parasite or virus in culture; type: cell-based; settings: for MIC: Enterococcus faecalis, E. faecalis
# MRSA clinical isolates = assay: microbe, parasite or virus in culture; type: cell-based, S. aureus; settings: for MIC: Staphylococcus aureus, MRSA, read-out: MIC
# Procedure: (§1) MRSA and P. aeruginosa isolates were from Cubist Pharmaceuticals (Lexington, MA). VRE isolates were from a previously published collection. E. coli strains were obtained either from ATCC or Professor Cari Vanderpool (UIUC). A. baumannii isolates were obtained from Dr John Quale[51].
# Susceptibility testing was performed in triplicate, using the microdilution broth method as outlined by the Clinical and Laboratory Standards Institute[52]. Mueller Hinton (MH) broth was used.
# A. baumannii [1] = assay: MIC, microdilution broth, A. baumannii; type: cell-based; settings: for MIC: Acinetobacter baumannii
# Excerpt: as §1
# (§2) Mueller Hinton (MH) broth was used.
# P. aeruginosa [2] = assay: MIC, microdilution broth, P. aeruginosa; type: cell-based
# Excerpt: as §1, §2
# [3] = system: FQR S. aureus (NRS3, FQR); assay: MIC, microdilution broth assay, FQR MRSA NRS3; type: cell-based; settings: NRS3; S84L GyrA and S80F ParC; three independent replicates
# Ent. Spp. = assay: MIC, microdilution broth, Ent. Spp. VRE clinical isolate; type: cell-based; settings: Enterococcus, C28036, gyrA Ser83Ile, parC Ser80Ile
# Excerpt: as §1, §2
# [4] = system: WT S. aureus (ATCC 29213, WT); assay: microbe, parasite or virus in culture; type: cell-based; settings: WT GyrA and WT ParC, three independent replicates; for MIC against S. aureus 29213: ATCC 29213; for MIC: Staphylococcus aureus, ATCC29213, ATCC 29213, read-out: MIC against S. aureus 29213
# E. faecium = assay: microbe, parasite or virus in culture; type: cell-based; settings: for MIC: Enterococcus faecium, E. faecium
# VRE clinical isolates = assay: MIC, VRE clinical isolates panel (summary by GyrA mutation); type: cell-based, Enterococcus; settings: panel of VRE clinical isolates (n=22)
# Excerpt: as §1, §2
# E. coli = assay: microbe, parasite or virus in culture; type: cell-based
# Excerpt: as §1, §2
# physchem = settings: pH 7.4
# Procedure: (§3) Three independent replicates of each compound were performed.
# P. aeruginosa [5] = system: P. aeruginosa; parameters: method as in earlier work; settings: previously determined, cited from earlier work
# [6] = system: resistant strains of ATCC 29213; assay: microbe, parasite or virus in culture; type: cell-based, S. aureus; settings: Staphylococcus aureus
# A. baumannii [7] = system: A. baumannii; parameters: method as in earlier work; settings: previously determined, cited from earlier work
# [8] = parameters: method as in PMID 24545057; settings: dosed subcutaneously, orally or by intraperitoneal injection; cited from earlier work
# [9] = system: K. pneuomoniae, S. aureus or Mycobacterium tuberculosis; parameters: method as in PMID 24545057; settings: cited from earlier work
# [10] = Aqueous solubility determination; settings: PBS, pH 7.4
# Procedure: as §3
# human topoisomerase II = target: T1, human topoisomerase II (Homo sapiens, UniProt P11388); assay: Human topoisomerase decatenation assay; type: biochemical
# T1 construct: purchased Inspiralis
# T1 sequence (P11388 whole entry): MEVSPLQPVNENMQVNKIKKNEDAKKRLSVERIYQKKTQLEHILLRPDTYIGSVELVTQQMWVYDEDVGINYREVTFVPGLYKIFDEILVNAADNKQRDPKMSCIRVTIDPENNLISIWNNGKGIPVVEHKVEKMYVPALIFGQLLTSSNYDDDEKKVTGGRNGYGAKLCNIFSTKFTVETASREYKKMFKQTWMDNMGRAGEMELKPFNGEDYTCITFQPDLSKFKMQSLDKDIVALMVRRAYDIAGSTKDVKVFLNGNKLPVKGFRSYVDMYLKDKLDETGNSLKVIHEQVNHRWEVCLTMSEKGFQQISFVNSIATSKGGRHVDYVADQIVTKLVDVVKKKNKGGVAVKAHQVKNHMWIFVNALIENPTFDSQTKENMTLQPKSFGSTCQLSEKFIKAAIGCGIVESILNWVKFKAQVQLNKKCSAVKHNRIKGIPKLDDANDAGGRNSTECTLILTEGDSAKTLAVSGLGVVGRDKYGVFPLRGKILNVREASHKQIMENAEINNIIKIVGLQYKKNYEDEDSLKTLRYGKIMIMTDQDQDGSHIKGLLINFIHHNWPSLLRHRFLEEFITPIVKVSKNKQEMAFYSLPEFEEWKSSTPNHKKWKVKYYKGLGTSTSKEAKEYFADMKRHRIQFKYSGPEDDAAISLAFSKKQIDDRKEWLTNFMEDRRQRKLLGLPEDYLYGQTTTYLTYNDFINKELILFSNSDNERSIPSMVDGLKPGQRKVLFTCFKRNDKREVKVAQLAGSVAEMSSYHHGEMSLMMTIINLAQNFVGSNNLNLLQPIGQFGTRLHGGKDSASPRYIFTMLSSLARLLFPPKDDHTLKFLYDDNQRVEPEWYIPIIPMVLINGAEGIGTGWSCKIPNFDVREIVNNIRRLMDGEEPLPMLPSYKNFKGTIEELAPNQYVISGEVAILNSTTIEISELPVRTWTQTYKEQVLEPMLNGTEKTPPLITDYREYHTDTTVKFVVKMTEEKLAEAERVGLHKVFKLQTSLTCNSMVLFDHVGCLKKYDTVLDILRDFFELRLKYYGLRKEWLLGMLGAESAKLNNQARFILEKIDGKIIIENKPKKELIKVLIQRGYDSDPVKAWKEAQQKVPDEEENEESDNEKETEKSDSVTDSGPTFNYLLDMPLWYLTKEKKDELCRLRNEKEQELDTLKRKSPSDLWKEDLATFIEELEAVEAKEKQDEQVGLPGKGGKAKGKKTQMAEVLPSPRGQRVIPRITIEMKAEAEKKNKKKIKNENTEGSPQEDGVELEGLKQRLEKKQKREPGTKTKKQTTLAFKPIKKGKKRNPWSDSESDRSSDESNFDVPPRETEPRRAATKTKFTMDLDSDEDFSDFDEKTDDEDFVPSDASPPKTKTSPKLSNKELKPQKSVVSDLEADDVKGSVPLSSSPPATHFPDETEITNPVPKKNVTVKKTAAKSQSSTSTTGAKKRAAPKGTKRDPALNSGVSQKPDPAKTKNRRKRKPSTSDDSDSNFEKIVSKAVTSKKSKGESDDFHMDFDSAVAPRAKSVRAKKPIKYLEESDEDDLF
# Procedure: The decatenation assay was performed with the Human Topo II Decatenation Assay Kit (Inspiralis), according to the manufacturer's instructions, with minor modifications. First, a master mix was made containing 2 μl of 10 × assay buffer (500 mM Tris-HCl pH 7.5, 1250, mM NaCl, 100 mM MgCl2, 50 mM DTT, 1,000 μg ml^−1 albumin), 0.67 μl of 30 mM ATP, 1.34 μl of 0.1 ng μl^−1 kDNA, and 14.3 μl of nuclease-free water per sample is made. DMSO or 30 × compound is added to a 0.5-ml Eppendorf tube (0.67 μl per tube). The master mix is then added to each tube (18.3 μl per tube). Finally, 1 U of human topoisomerase (1 μl of 1 U μl^−1 stock) is added to each tube for a final volume of 20 μl. The tubes are then incubated at 37 °C for 30 min. Reactions are stopped by the addition of 20 μl of 24:1 chloroform:isoamyl alcohol and 20 μl of stop dye (40% sucrose, 1 mM EDTA, 100 mM Tris-HCl pH 7.5, 0.5 μg ml^−1 bromophenol blue). Samples were run on 1% agarose gels containing 0.5 μg ml^−1 ethidium bromide for 1 h at 110 V or until the dye front was approximately halfway down the gel. Gels were imaged on a Molecular Imager Gel Doc XR+ (Biorad).
# [11] = ATCC19433, ATCC 19433, gyrA WT, parC WT
# [12] = ATCC29212, ATCC 29212, gyrA WT, parC WT
smiles,measurement,setting,value
CCCn1c(=O)cc(C)c2cc3c(C)cc(=O)n4c3c(c21)OC4 [DNM-8],MIC,E. faecalis; [11],16 µg/mL
same,MIC,E. faecalis; [12],8 µg/mL
same,MIC,"E. faecalis; C21667, gyrA Ser83Ile, parC Ser80Ile",1 µg/mL
same,MIC,"E. faecalis; C28535, gyrA Ser83Ile, parC Ser80Ile",1 µg/mL
same,MIC,"E. faecalis; S206, gyrA Ser83 Arg, parC Ser80Ile",4 µg/mL
same,MIC,"E. faecalis; S234, gyrA Ser83Ile, parC Ser80Ile Glu84Asp",0.5 µg/mL
same,MIC,MRSA clinical isolates; strain SAU.1118,8 µg/mL
same,MIC,MRSA clinical isolates; strain SAU.2996,2 µg/mL
same,MIC,MRSA clinical isolates; strain SAU.3017,4 µg/mL
same,MIC,MRSA clinical isolates; strain SAU.3021,0.125 µg/mL
same,MIC,MRSA clinical isolates; strain SAU.3025,0.125 µg/mL
same,MIC,MRSA clinical isolates; strain SAU.3026,0.25 µg/mL
same,MIC,MRSA clinical isolates; strain SAU.42,8 µg/mL
same,MIC,MRSA clinical isolates; strain SAU.447,1 µg/mL
same,MIC,MRSA clinical isolates; strain SAU.555,0.5 µg/mL
same,MIC,MRSA clinical isolates; strain SAU.669,0.125 µg/mL
same,Sensitivity of MRSA clinical isolates,MRSA clinical isolates; panel of MRSA clinical isolates (n=21),sensitive
same,MIC,A. baumannii [1],> 32 µg/mL
same,MIC,"A. baumannii [1]; ATCC19606, A. baumannii ATCC 19606, read-out: MIC",> 32 µg/mL
same,MIC,P. aeruginosa [2]; PA1586 (CIP resistant clinical isolate),> 32 µg/mL
same,MIC,"P. aeruginosa [2]; Pseudomonas aeruginosa, P. aeruginosa PAO1, read-out: MIC",> 32 µg/mL
same,MIC,"P. aeruginosa [2]; Pseudomonas aeruginosa, read-out: MIC",> 32 µg/mL
same,MIC against S. aureus NRS3,[3],0.12 µg/mL
same,MIC,Ent. Spp.,1 µg/mL
same,MIC against S. aureus 29213,[4],16 µg/mL
same,MIC,[4],16 µg/mL
same,MIC,"E. faecium; C21190, gyrA Ser83 Arg, parC Ser80Ile",8 µg/mL
same,MIC,"E. faecium; C27282, gyrA Ser83 Arg, parC Ser80Arg",8 µg/mL
same,MIC,"E. faecium; C27569, gyrA Ser83Ile, parC Ser80Ile",1 µg/mL
same,MIC,"E. faecium; D1, gyrA Ser83Ile, parC Ser80Ile",0.5 µg/mL
same,MIC,"E. faecium; S34, gyrA Ser83Ile, parC Ser80 Arg",2 µg/mL
same,MIC,"E. faecium; S51, gyrA Ser83Ile, parC Ser80Ile",1 µg/mL
same,MIC,"E. faecium; S122, gyrA Ser83Ile, parC Ser80Ile",1 µg/mL
same,MIC,"E. faecium; S226, gyrA Ser83Ile, parC Ser80Ile",1 µg/mL
same,MIC,"E. faecium; S235, gyrA Ser83Ile, parC Ser80Ile",1 µg/mL
same,MIC,"E. faecium; S344, gyrA Ser83Ile, parC Ser80Ile",1 µg/mL
same,MIC,"E. faecium; S557, gyrA Ser83Ile, parC Ser80Ile",0.5 µg/mL
same,MIC,"E. faecium; SL152, gyrA Ser83Ile, parC Ser80Ile",1 µg/mL
same,MIC,"E. faecium; U63, gyrA Ser83 Arg, parC Ser80Ile",4 µg/mL
same,MIC,"E. faecium; U275, gyrA Ser83Cys Glu87Gly, parC Ser80Ile",4 µg/mL
same,MIC,"E. faecium; U464, gyrA Ser83 Arg, parC Ser80Ile",2 µg/mL
same,MIC,"E. faecium; U503, gyrA Ser83 Arg, parC Ser80Ile",4 µg/mL
same,MIC,"E. faecium; U563, gyrA Ser83 Arg, parC Ser80Ile",4 µg/mL
same,Sensitivity of VRE clinical isolates,VRE clinical isolates,sensitive
same,MIC,"E. coli; Escherichia coli, ATCC25922, E. coli ATCC 25922, gyrA none, parC none",> 32 µg/mL
same,solubility at 1 h,physchem,68 ± 9 µM
"O=C(O)c1cn(C2CC2)c2cc(N3CCNCC3)c(F)cc2c1=O [CIP, ciprofloxacin, reference compound]",MIC,E. faecalis; [11],2 µg/mL
same,MIC,E. faecalis; [12],0.5 to 2 µg/mL
same,CIP (S/I/R),E. faecalis; strain ATCC 19433,S (sensitive (S) if it had an MIC ≤ 4 µg mL-1)
same,CIP (S/I/R),E. faecalis; strain ATCC 29212,S (sensitive (S) if it had an MIC ≤ 4 µg mL-1)
same,CIP (S/I/R),E. faecalis; strain C21667,R (resistant (R) with a MIC ≥ 16 µg mL-1)
same,CIP (S/I/R),E. faecalis; strain C28535,R (resistant (R) with a MIC ≥ 16 µg mL-1)
same,CIP (S/I/R),E. faecalis; strain S206,R (resistant (R) with a MIC ≥ 16 µg mL-1)
same,CIP (S/I/R),E. faecalis; strain S234,R (resistant (R) with a MIC ≥ 16 µg mL-1)
same,CIP (S/R),A. baumannii [1],S
same,CIP (S/R),P. aeruginosa [2],S
same,CIP (S/R),P. aeruginosa [5]; PA1000,R
same,CIP (S/R),P. aeruginosa [5]; PA1586,R
same,MIC,"[6]; ATCC29213, high-level CIP-resistant strains, second step, S84L mutation in GyrA",16 to 64 µg/mL
same,MIC,"[6]; ATCC29213, low-level CIP-resistant strains, first step, WT gyrA, mutation in ParC (for example E84K or S80F)",4 to 8 µg/mL
same,CIP (S/I/R),E. faecium; strain C21190,R (resistant (R) with a MIC ≥ 16 µg mL-1)
same,CIP (S/I/R),E. faecium; strain C27282,R (resistant (R) with a MIC ≥ 16 µg mL-1)
same,CIP (S/I/R),E. faecium; strain C27569,R (resistant (R) with a MIC ≥ 16 µg mL-1)
same,CIP (S/I/R),E. faecium; strain D1,R (resistant (R) with a MIC ≥ 16 µg mL-1)
same,CIP (S/I/R),E. faecium; strain S34,R (resistant (R) with a MIC ≥ 16 µg mL-1)
same,CIP (S/I/R),E. faecium; strain S51,R (resistant (R) with a MIC ≥ 16 µg mL-1)
same,CIP (S/I/R),E. faecium; strain S122,R (resistant (R) with a MIC ≥ 16 µg mL-1)
same,CIP (S/I/R),E. faecium; strain S226,R (resistant (R) with a MIC ≥ 16 µg mL-1)
same,CIP (S/I/R),E. faecium; strain S235,R (resistant (R) with a MIC ≥ 16 µg mL-1)
same,CIP (S/I/R),E. faecium; strain S344,R (resistant (R) with a MIC ≥ 16 µg mL-1)
same,CIP (S/I/R),E. faecium; strain S557,R (resistant (R) with a MIC ≥ 16 µg mL-1)
same,CIP (S/I/R),E. faecium; strain SL152,R (resistant (R) with a MIC ≥ 16 µg mL-1)
same,CIP (S/I/R),E. faecium; strain U63,R (resistant (R) with a MIC ≥ 16 µg mL-1)
same,CIP (S/I/R),E. faecium; strain U275,R (resistant (R) with a MIC ≥ 16 µg mL-1)
same,CIP (S/I/R),E. faecium; strain U464,R (resistant (R) with a MIC ≥ 16 µg mL-1)
same,CIP (S/I/R),E. faecium; strain U503,R (resistant (R) with a MIC ≥ 16 µg mL-1)
same,CIP (S/I/R),E. faecium; strain U563,R (resistant (R) with a MIC ≥ 16 µg mL-1)
same,CIP (S/R),E. coli,S
same,CIP (S/R),A. baumannii [7]; A. baumannii KB304,R
same,CIP MIC,A. baumannii [7]; A. baumannii KB304,24 µg/mL
same,CIP (S/R),A. baumannii [7]; A. baumannii KB349,R
same,CIP MIC,A. baumannii [7]; A. baumannii KB349,> 32 µg/mL
"Cc1cc(=O)n2c3c(c4c(cc13)c(CO)cc(=O)n4C)OC2 [NM, Nybomycin]",tolerability in mice,[8],well tolerated
same,activity in mice infected with various bacteria,[9],no activity
CCCc1cc(=O)n(C)c2c3c4c(cc12)c(CCC)cc(=O)n4CO3 [compound 14],solubility at 1 h,[10],< 1 µM
same,MIC against S. aureus NRS3,[3],32 µg/mL
same,MIC against S. aureus 29213,[4],> 32 µg/mL
same,MIC,[4],> 32 µg/mL
"COc1cccc2c1C(=O)c1c(O)c3c(c(O)c1C2=O)C[C@@](O)(C(=O)CO)C[C@@H]3O[C@H]1C[C@H](N)[C@H](O)[C@H](C)O1 [doxorubicin, reference compound]",concentration inhibiting human topoisomerase II,human topoisomerase II,3 µM
